Measured values published in ChEMBL document CHEMBL1158653, “Plant anticancer agents X. Isolation of camptothecin and 9-methoxycamptothecin from Ervatamia heyneana” (1979).
≈ marks a conversion by molar mass, not a printed value.

Key:
Assay type in all cases: functional
KB = test: Cytotoxicity against human KB cells; conditions: read-out: ED50 (the source's name)
P388 [1] = test: Cytotoxicity against mouse P388 cells; conditions: read-out: ED50 (the source's name)
P388 [2] = test: Cytotoxicity against mouse P388 cells in in vivo based assay at 0.78 mg/kg relative to control
P388 [3] = test: Cytotoxicity against mouse P388 cells in in vivo based assay at 1.56 mg/kg relative to control

SMILES	EC50 (KB) [µg/mL]	EC50 (P388 [1]) [µg/mL]	T/C (P388 [2]) [%]	T/C (P388 [3]) [%]
CC[C@@]1(O)C(=O)OCc2c1cc1n(c2=O)Cc2cc3c(OC)cccc3nc2-1	0.17 (≈ 0.449 µM)	0.53 (≈ 1.4 µM)		
CC[C@@]1(O)C(=O)OCc2c1cc1n(c2=O)Cc2cc3ccccc3nc2-1 [CAMPTOTHECIN]			175	181
